“And” between values parts separate entries of the source, which are not always exact repeats. Equal values may be shown once. “Also recorded” adds a separate entry of the source.
What was measured:
[1] = HPLC analysis of test article vials and patch controls in air (mini-pig study); assay type: physicochemical
Method: Squaric acid dibutyl ester (SADBE) at 2% (w/v) concentration in dimethylsulfoxide (DMSO) was added to a skin patch for dermal dosing of SADBE to test for a delayed-type hypersensitivity response or other skin irritation. In the laboratories of Squarex HPLC analysis was conducted to analyze for SADBE content, for analysis of the dose formulation prepared by APS and to determine stability of the test article in the dermal patches during the application time and to test for residual SADBE in the dermal patches after 12 hours applied to the animals.
The skin patches consisted of a polymer backing layer similar to 3M 9916 polyester nonwoven backing layer with adhesive, 3M 9733 polyester film laminate barrier layer, and Precision Fabrics Group 0700-00010 polyester gauze layer. The gauze was heat sealed to the barrier layer. The gauze patch area was 1.53 cm^2.
(§1) The tubes of DMSO with patches were transported to the Squarex laboratory, shaken at 200 rpm for 30 minutes to overnight, and then the DMSO from each tube was placed in an injection vial and analyzed for SADBE content by HPLC on a C18 column with the program SADBE3-50 ul. SADBE elutes in this program at about 24.0 minutes and absorbs at 255 nm, so the area of the 24.0 min peak at 255 nm was used to quantify SADBE. The SADBE degradation product squaric acid monobutyl ester (SAMBE) was also quantified by 255 nm area under the curve at the elution time of 12.7 minutes.
The test article vials of 2%, 6%, and 18% SADBE dissolved in DMSO complied with specifications and had the predicted concentrations of SADBE at 24 hours after preparation.
The results indicated the SADBE was stable for more than 12 hours in the patches when not exposed to animal skin. There was no apparent loss of SADBE or conversion of SADBE to SAMBE.

[2] = test system: common warts and alopecia areata; details: solutions of 0.05% to 2.0% weight/volume, vehicle almost always acetone, applied repeatedly (Buckley et al., Lee et al.); cited from earlier work
pig skin = assay: Skin irritation (erythema, edema) after SADBE dermal patches in swine; assay type: in vivo; details: for Average high erythema score: across all patches, doses and exposure times
Description: An additional purpose was to assess immediate and delayed skin irritation, including erythema and edema on the pig skin over 4 weeks after dosing. Skin irritation was scored as in Table 5. [table] It was scored 3 times per week at each patch application site for four weeks. The scores shown are the erythema score at the time of patch removal, and then the highest of the 3 scores taken each week for each patch site.

[3] = Residual SADBE and SAMBE in patches after 12 hours on mini-pigs; assay type: in vivo, Gottingen miniswine; details: for SADBE as % of expected (remaining in patch): 12 hours on mini-pigs
Method: as §1, with “Patches were removed from the pigs at the indicated times and immediately the reservoir portion of the patch was cut out and placed in a 50 ml tube with 10 ml of DMSO. The tubes” for “The tubes”

[4] = Toxicity evaluation (body weight, food consumption, clinical observation, histopathology) in guinea pig; assay type: in vivo
Description: The purpose of this nonGLP study was to evaluate the effect of various concentrations of SADBE delivered via dermal patch, for dose site irritation and toxicity endpoints such as body weights, group food consumption, clinical observation, pre-termination clinical pathology, gross and histopathology.
Thirty (30) guinea pigs (15 female and 15 male) were utilized for this nonGLP study. Prior to and post dosing (dermal patches loaded with 20 microliters of 2, 6, or 18% SADBE drug solution) body weights, group food consumption, and Draize scoring for erythema, eschar formation, and edema at the dose site were be recorded. The dermal patch loaded with SADBE was applied to animals, and left in place for ˜12 hours plus/minus 1 hour. Following the ˜12 hour dosing period, patch sites was assessed by Draize scoring. […] After the 28 days assessment period, re challenge was performed, a second patch (not treated during the induction phase) was applied and assessed by Draize scoring.
At the end of the survival period, blood was collected for standard hematology and serum chemistry analysis, and the animals humanely euthanized. The second dose site and cervical lymph nodes were collected at necropsy for further histopathological evaluation. Dose site was explanted, fixed, and embedded. Dose sites were examined histologically and an evaluation of cell type presence and tissue response conducted.

[5] = 2% patch control, 20 ul, >12 hours in air
[6] = 2% vial, SADBE in DMSO, 24 hours after preparation
[7] = 6% patch control, 20 ul, >12 hours in air
[8] = 6% vial, SADBE in DMSO, 24 hours after preparation
[9] = 18% vial, SADBE in DMSO, 24 hours after preparation
[10] = any dose tested (2%, 6%, 18% SADBE patch)
[11] = female, Group 1, 2% SADBE patch
[12] = female, Group 3, 18% SADBE patch

CCCCOc1c(OCCCC)c(=O)c1=O [SADBE, squaric acid dibutyl ester]
% of expected SADBE [1, 5]: 97.7% | SAMBE as percent of SADBE [1, 5]: 0.86% | % of expected SADBE [1, 6]: 100.8% | SAMBE as percent of SADBE [1, 6]: 0.88% | % of expected SADBE [1, 7]: 96.8% | SAMBE as percent of SADBE [1, 7]: 0.96% | % of expected SADBE [1, 8]: 97.5% | SAMBE as percent of SADBE [1, 8]: 0.96% | % of expected SADBE [1, 9]: 104.4% | SAMBE as percent of SADBE [1, 9]: 1.00% | time SADBE was stable in the patches ([1]; patches not exposed to animal skin, no apparent loss or conversion to SAMBE): more than 12 hours | treatment of common warts and alopecia areata [2]: used successfully | Average erythema score weeks 0-3 (pig skin; 20 ul of 2% SADBE, 1 hour exposure): 0 | Average erythema score weeks 0-3 (pig skin; 20 ul of 2% SADBE, 3 hours exposure): 0.83 | Average erythema score weeks 0-3 (pig skin; 20 ul of 2% SADBE, 6 hours exposure): 0.92 | Average erythema score weeks 0-3 (pig skin; 20 ul of 2% SADBE, 24 hours exposure): 1.5 | Average erythema score weeks 0-3 (pig skin; 50 ul of 2% SADBE, 1 hour exposure): 1.5 | Average erythema score weeks 0-3 (pig skin; 50 ul of 2% SADBE, 3 hours exposure): 2.125 | Average erythema score weeks 0-3 (pig skin; 50 ul of 2% SADBE, 6 hours exposure): 1.92 | Average erythema score weeks 0-3 (pig skin; 50 ul of 2% SADBE, 24 hours exposure): 2.5 | Average erythema score weeks 0-3 (pig skin; 80 ul of 2% SADBE, 1 hour exposure): 1.375 | Average erythema score weeks 0-3 (pig skin; 80 ul of 2% SADBE, 3 hours exposure): 1.625 | Average erythema score weeks 0-3 (pig skin; 80 ul of 2% SADBE, 6 hours exposure): 1.25 | Average erythema score weeks 0-3 (pig skin; 80 ul of 2% SADBE, 24 hours exposure): 2.25 | Average high erythema score (pig skin; Week 1): 1.05 | Average high erythema score (pig skin; Week 2): 2.60 | Average high erythema score (pig skin; Week 3): 1.73 | Average high erythema score (pig skin; Week 4): 0.00 | edema at drug application site (pig skin; any site, any time after patch application and removal): No pigs had edema | Average high erythema score (pig skin; at patch removal): 0.63 | SADBE apparently transferred into the mini pig skin ([3]; 2% patches, 12 hours): about 89% | SADBE as % of expected (remaining in patch) ([3]; 2% patches, individual animals): 7.0% and 14.6% | SADBE as % of expected (remaining in patch) ([3]; 6% patches, average of 2 animals): 35% and 35.4% | SADBE as % of expected (remaining in patch) ([3]; 6% patches, individual animals): 29.9% and 40.8% | SADBE as % of expected (remaining in patch) ([3]; 18% patches, average of 2 animals): 65% and 65.5% | SADBE as % of expected (remaining in patch) ([3]; 18% patches, individual animals): 65.2% and 65.8% | lymph node sections ([4]; all SADBE treated groups (summary)): within normal limits | clinical monitoring observations ([4]; all doses): did not reveal any significant abnormalities | histopathology observed at all SADBE treated sites (summary) ([4]; all doses): mild to moderate parakeratosis, minimal multifocal necrosis and fatty infiltration | systemic toxicity ([4]; all doses, post-dosing and daily throughout study): no signs of systemic toxicity | effect on body weight [4, 10]: no significant effect; also recorded: not affected | effect on food consumption [4, 10]: no significant effect; also recorded: not affected | histopathology of treated skin sites: inflammatory infiltrates in the dermis [4, 11]: multifocal rare to mild infiltrates of inflammatory cells | histopathology of treated skin sites: necrosis, neovascularization, fibrosis, fatty infiltration [4, 11]: Necrosis, neovascularization, fibrosis and fatty infiltration were not noted | histopathology of treated skin sites: inflammatory infiltrates in the dermis ([4]; female, Group 2, 6% SADBE patch): multifocal rare to mild infiltrates of inflammatory cells | histopathology of treated skin sites: necrosis, neovascularization, fatty infiltration ([4]; female, Group 2, 6% SADBE patch, narrow fibrous band in three animals): Necrosis, neovascularization and fatty infiltration were not noted | histopathology of treated skin sites: inflammatory infiltrates in the dermis [4, 12]: multifocal rare to mild infiltrates of inflammatory cells | histopathology of treated skin sites: necrosis, neovascularization [4, 12]: Minimal multifocal necrosis and neovascularization was noted | histopathology of treated skin sites: inflammatory infiltrates in the dermis ([4]; male, Group 1, 2% SADBE patch): multifocal rare infiltrates of inflammatory cells | histopathology of treated skin sites: necrosis, neovascularization, fibrosis, fatty infiltration ([4]; male, Group 1, 2% SADBE patch): Necrosis, neovascularization, fibrosis and fatty infiltration were not noted | histopathology of treated skin sites: inflammatory infiltrates in the dermis ([4]; male, Group 2, 6% SADBE patch): multifocal rare to mild infiltrates of inflammatory cells | histopathology of treated skin sites: necrosis, neovascularization, fibrosis, fatty infiltration ([4]; male, Group 2, 6% SADBE patch): Necrosis, neovascularization, fibrosis and fatty infiltration were not noted | histopathology of treated skin sites: inflammatory infiltrates in the dermis ([4]; male, Group 3, 18% SADBE patch): multifocal rare to heavy infiltrates of inflammatory cells | histopathology of treated skin sites: necrosis, neovascularization ([4]; male, Group 3, 18% SADBE patch): Minimal, multofocal necrosis and mild multifocal neovascularization was noted

— patent US20210393932A1, “DERMAL PATCHES AND GLASS SWABS FOR APPLICATION OF TOPICAL IMMUNOSENSITIZERS” (Squarex, LLC, priority 2020, published 2021)
